Laboratory results: publication PMC3971658 (The Journal of General Physiology, 2014)

Legend:
[1] = target: human Cav2.1 (α1A-2) channel and GABABR (Homo sapiens, UniProt O75899+Q9UBS5); type: cell-based; conditions: 200 nM
[2] = target: human Cav2.3c (α1E-c) channel and GABABR (Homo sapiens, UniProt O75899+Q9UBS5); type: cell-based; conditions: 200 nM
[3] = system: human Cav2.3c channel and GABABR; type: cell-based
[4] = system: rat models of neuropathic pain; conditions: in vivo; cited from earlier work
GABABR = conditions: cited from earlier work

## Vc1.1
[1]
  IBa inhibition: 0 (9) %
[2]
  IBa inhibition: 25.5 ± 4.2 (9) %
[3]
  pathway of inhibition (VD or VI): solely mediated by a VI pathway
[4]
  analgesic effect: can be used as an analgesic in rat models of neuropathic pain
GABABR
  competition with baclofen for binding to receptors: does not compete with baclofen for binding to receptors
